# Reference: US12134587B2, “Reaction products and methods for making and using the same” (KOCH AGRONOMIC SERVICES, LLC, priority 2010, dated 2024)
# Test system: nitrification of ammonium to nitrate in Greenville loamy soil
# Experiment: Soil incubation test of nitrogen transformations (ammonium-N and nitrate-N)
# Protocol: Three reaction products (Ex. 1-3) mixed with a urea solution to produce a liquid fertilizer solution were prepared and incubation tests were conducted. A comparative example of a urea only solution, i.e., a urea solution without a reaction product (C1), and a comparative example of a urea solution mixed with dicyandiamide (DCD) (C2) were also prepared and evaluated. For comparative example C2, the urea solution mixed with DCD was not reacted. In other words, the DCD was mixed with the urea solution to provide the fertilizer. A Control was also prepared that consisted of soil, i.e., no nitrogen source nor reaction product was added.
# Incubation tests were performed using each Example 1-3 to evaluate the nitrogen transformations for each sample. The effect of each reaction product (Ex. 1-3) on the nitrogen concentration in the soil as both ammonium-nitrogen and nitrate-nitrogen were evaluated at three different concentrations of the reaction products. More particularly, the concentration of DCD for a first set of samples was 0.75 wt. % (Table 1), a second set of samples was 1.5 wt. % (Table 2), and a third set of samples was 3 wt. % (Table 3), where the weight percents of the DCD concentration are based on the total weight of nitrogen in the urea solution.
# The soil used in the incubation tests was Greenville loamy soil (clay-loam, siliceous, thermic Plinthic Kandiudults). […] The phosphorous and sulfur concentrations were determined according to the Bray-1 test. The zinc concentration was determined according to the DTPA (diethylenetriaminepentaacetic acid) soil test.
# As used herein, the term “field capacity,” refers to the drained upper limit or moisture content below which there is no free drainage flow. During the one week incubation period the moisture was reduced to about 80%. For each test 50 g of soil was placed into a cup and each cup was covered with a lid having four holes to allow for aeration and to minimize water loss.
# Stock solutions containing each example were prepared by adding 2.15 g of urea and the corresponding amount of DCD (C2) or the reaction product (Ex. 1-3) to a 500 mL beaker to provide samples having 0.75 wt. % (Table 1), 1.5 wt. % (Table 2), and 3 wt. % (Table 3) DCD based on the total nitrogen concentration in the urea solution. After adding the urea (C1), urea plus DCD (C2), and urea plus the reaction products (Ex. 1-3), to the beakers, the contents of each beaker were diluted to 500 mL with distilled water to provide a stock solution. For the examples shown in Tables 1-3 below, 5 mL of the corresponding stock solution were introduced via a pipette onto each 50 g soil sample and the cover was placed thereon. The amount of nitrogen contained in each example (Ex. 1-3, C1, and C2) was 10 mg and the nitrogen was in the form of urea. The soil had at least an 80% field moisture capacity for each sample and if needed additional distilled water was used in order to achieve the 80% field moisture capacity.
# Soil extractions were made at 1 week intervals to determine the amount of ammonium-nitrogen and nitrate-nitrogen in each example. A total of 10 extractions were performed, namely at time=0 and after the 1st week, 2nd week, 3rd week, 4th week, 5th week, 6th week, 7th week, 8th week, and the […]. Extracting the nitrogen from each sample was done by adding 100 mL of a 2M potassium chloride (KCl) solution to each soil sample to be tested. The amount of nitrogen in the form of ammonium (NH4^+) and nitrate (NO3^−) were then determined.
# The amount of ammonium was determined using the well-known Berthelot reaction in which ammonia is chlorinated to monochloroamine, which then reacts with salicylate to form 5-aminosalicylate. After oxidation and oxidative coupling, a green color complex was formed which was measured at 660 nm using a spectrophotometer.
# The determination of nitrate was determined based on the reduction of nitrate (NO3) to […] (NO2) by hydrazinium sulfate or cadmium metal. […]
# [1] = 0.75 wt. % DCD based on nitrogen in urea solution, Wk. 0
# [2] = 1.5 wt. % DCD Based on the Weight of Nitrogen in the Fertilizer, Wk. 0
# [3] = 3 wt. % DCD Based on the Weight of Nitrogen in the Fertilizer, Wk. 0
structure (smiles),measurement,setting,value
"NC(N)=O [C1, urea]",Ammonium (NH4^+),[1],0.39 mg N
same,Nitrate (NO3^−),[1],1.27 mg N
same,Ammonium (NH4^+),"0.75 wt. % DCD, Wk. 1",6.81 mg N
same,Nitrate (NO3^−),"0.75 wt. % DCD, Wk. 1",3.61 mg N
same,Ammonium (NH4^+),"0.75 wt. % DCD, Wk. 2",4.21 mg N
same,Nitrate (NO3^−),"0.75 wt. % DCD, Wk. 2",6.37 mg N
same,Ammonium (NH4^+),"0.75 wt. % DCD, Wk. 3",2.14 mg N
same,Nitrate (NO3^−),"0.75 wt. % DCD, Wk. 3",8.38 mg N
same,Ammonium (NH4^+),"0.75 wt. % DCD, Wk. 4",0.18 mg N
same,Nitrate (NO3^−),"0.75 wt. % DCD, Wk. 4",10.45 mg N
same,Ammonium (NH4^+),"0.75 wt. % DCD, Wk. 5",0.08 mg N
same,Nitrate (NO3^−),"0.75 wt. % DCD, Wk. 5",10.69 mg N
same,Ammonium (NH4^+),"0.75 wt. % DCD, Wk. 6",0.08 mg N
same,Nitrate (NO3^−),"0.75 wt. % DCD, Wk. 6",10.66 mg N
same,Ammonium (NH4^+),"0.75 wt. % DCD, Wk. 7",0.09 mg N
same,Nitrate (NO3^−),"0.75 wt. % DCD, Wk. 7",10.85 mg N
same,Ammonium (NH4^+),"0.75 wt. % DCD, Wk. 8",0.10 mg N
same,Nitrate (NO3^−),"0.75 wt. % DCD, Wk. 8",10.97 mg N
same,Ammonium (NH4^+),"0.75 wt. % DCD, Wk. 10",0.04 mg N
same,Nitrate (NO3^−),"0.75 wt. % DCD, Wk. 10",10.98 mg N
same,Ammonium (NH4^+),[2],0.39 mg N
same,Nitrate (NO3^−),[2],1.27 mg N
same,Ammonium (NH4^+),"1.5 wt. % DCD, Wk. 1",6.81 mg N
same,Nitrate (NO3^−),"1.5 wt. % DCD, Wk. 1",3.61 mg N
same,Ammonium (NH4^+),"1.5 wt. % DCD, Wk. 2",4.21 mg N
same,Nitrate (NO3^−),"1.5 wt. % DCD, Wk. 2",6.37 mg N
same,Ammonium (NH4^+),"1.5 wt. % DCD, Wk. 3",2.14 mg N
same,Nitrate (NO3^−),"1.5 wt. % DCD, Wk. 3",8.38 mg N
same,Ammonium (NH4^+),"1.5 wt. % DCD, Wk. 4",0.18 mg N
same,Nitrate (NO3^−),"1.5 wt. % DCD, Wk. 4",10.45 mg N
same,Ammonium (NH4^+),"1.5 wt. % DCD, Wk. 5",0.08 mg N
same,Nitrate (NO3^−),"1.5 wt. % DCD, Wk. 5",10.69 mg N
same,Ammonium (NH4^+),"1.5 wt. % DCD, Wk. 6",0.08 mg N
same,Nitrate (NO3^−),"1.5 wt. % DCD, Wk. 6",10.66 mg N
same,Ammonium (NH4^+),"1.5 wt. % DCD, Wk. 7",0.09 mg N
same,Nitrate (NO3^−),"1.5 wt. % DCD, Wk. 7",10.85 mg N
same,Ammonium (NH4^+),"1.5 wt. % DCD, Wk. 8",0.10 mg N
same,Nitrate (NO3^−),"1.5 wt. % DCD, Wk. 8",10.97 mg N
same,Ammonium (NH4^+),"1.5 wt. % DCD, Wk. 10",0.04 mg N
same,Nitrate (NO3^−),"1.5 wt. % DCD, Wk. 10",10.98 mg N
same,Ammonium (NH4^+),[3],0.39 mg N
same,Nitrate (NO3^−),[3],1.27 mg N
same,Ammonium (NH4^+),"3 wt. % DCD, Wk. 1",6.81 mg N
same,Nitrate (NO3^−),"3 wt. % DCD, Wk. 1",3.61 mg N
same,Ammonium (NH4^+),"3 wt. % DCD, Wk. 2",4.21 mg N
same,Nitrate (NO3^−),"3 wt. % DCD, Wk. 2",6.37 mg N
same,Ammonium (NH4^+),"3 wt. % DCD, Wk. 3",2.14 mg N
same,Nitrate (NO3^−),"3 wt. % DCD, Wk. 3",8.38 mg N
same,Ammonium (NH4^+),"3 wt. % DCD, Wk. 4",0.18 mg N
same,Nitrate (NO3^−),"3 wt. % DCD, Wk. 4",10.45 mg N
same,Ammonium (NH4^+),"3 wt. % DCD, Wk. 5",0.08 mg N
same,Nitrate (NO3^−),"3 wt. % DCD, Wk. 5",10.69 mg N
same,Ammonium (NH4^+),"3 wt. % DCD, Wk. 6",0.08 mg N
same,Nitrate (NO3^−),"3 wt. % DCD, Wk. 6",10.66 mg N
same,Ammonium (NH4^+),"3 wt. % DCD, Wk. 7",0.09 mg N
same,Nitrate (NO3^−),"3 wt. % DCD, Wk. 7",10.85 mg N
same,Ammonium (NH4^+),"3 wt. % DCD, Wk. 8",0.10 mg N
same,Nitrate (NO3^−),"3 wt. % DCD, Wk. 8",10.97 mg N
same,Ammonium (NH4^+),"3 wt. % DCD, Wk. 10",0.04 mg N
same,Nitrate (NO3^−),"3 wt. % DCD, Wk. 10",10.98 mg N
